Data from patent US20240050408A1, “USE OF MGLUR5 ANTAGONISTS FOR TREATING AMPHETAMINE ADDICTION” (NOVARTIS AG, priority 2020, published 2024).

Tested on: patients with Cocaine Use Disorder (CUD)
Assay: Phase 2 trial: anxiety (STAI) and depressive symptoms (BDI-II)
Type: in vivo, human
Conditions: for anxiety symptoms by STAI: difference vs placebo not statistically significant (P=0.144 S-Anxiety, P=0.425 T-Anxiety); for depressive symptoms by BDI: difference vs placebo not statistically significant (P=0.696 BDI-II)
Description: This study was conducted in patients with CUD and consisted of about a 21-day screening period followed by a 7-day baseline period, a 98-day outpatient treatment period, and an end of study visit evaluation about 14 days after the last study drug administration ([…]. A). Study treatment was taken twice daily (separated by about 12-hour intervals) with food. For patients in the mavoglurant arm [mavoglurant (free form) provided as modified release formulation (e.g. in WO2014/199316)], an uptitration regimen was performed for 14 days (50 mg b.i.d. from Days 1 to 7 and 100 mg b.i.d from Days 8 to 14) and was followed by 200 mg b.i.d for 84 days.
Patient Reported Outcome included: • 1. The TLFB cocaine: is a cocaine assessment method that obtains estimates of daily cocaine intake and has been evaluated with clinical and nonclinical populations. Using a calendar, people provide retrospective estimates of their daily cocaine use over a specified time period that can vary up to 12 months from the interview date. Several memory aids can be used to enhance recall (e.g., calendar; key dates serve as anchors for reporting cocaine use). […] The method is recommended for use when relatively precise estimates of cocaine use are necessary, especially when a complete use pre-posttreatment). Clinically, the TLFB can be used to provide feedback about one's cocaine consumption in an effort to increase a client's motivation to change. • 2. The TLFB alcohol: is a drinking assessment method that obtains estimates of daily drinking and has been evaluated with clinical and nonclinical populations. Using a calendar, people provide retrospective estimates of their daily drinking over a specified time period that can vary up to 12 months from the interview date. Several memory aids can be used to enhance recall (e.g., calendar; key dates serve as anchors for reporting drinking; standard drink conversion). […] The method is recommended for use when relatively precise estimates of drinking are necessary, especially when a complete picture of drinking days (i.e., high- and low-risk days) is needed (evaluating drinking pre/post-treatment). Clinically, the TLFB can be used to provide feedback about one's drinking in an effort to increase a client's motivation to change. Overall, the Alcohol TLFB method provides a relatively accurate portrayal of drinking, and has both clinical and research utility. • 3. The BDI-II: is instrument endorsed by the National Institute for Health and Clinical Excellence for use in primary care in measuring baseline depression severity and responsiveness to treatment. • 4. The STAI: is an assessment tool for measuring the presence and severity of current symptoms of anxiety and a generalized propensity to be anxious. […]

## COC(=O)N1CC[C@@H]2[C@H]1CCC[C@@]2(O)C#Cc1cccc(C)c1 [mavoglurant, (-)-(3aR,4S,7aR)-4-Hydroxy-4-m-tolylethynyl-octahydro-indole-1-carboxylic acid methyl ester]
  anxiety symptoms by STAI: reduced nonsignificantly
  depressive symptoms by BDI: reduced nonsignificantly
Listed as Mavoglurant
  anxiety symptoms by STAI: reduced anxiety and depressive symptoms
  depressive symptoms by BDI: reduced anxiety and depressive symptoms
